Test results from US4145554A, “3-Nitropyrazole derivatives” (Eli Lilly and Company, priority 1977, dated 1979).
Converted amounts (≈) assume the structure as drawn. Where two headings read alike, the source gives them in different places.

Columns and labels:
large crabgrass = experiment: herbicidal activity, application to plants; assay type: in vivo; details: applied to foliage of growing plant at 1 lb./acre
Source text: The herbicidal compounds of our invention have shown the ability to control undesired plants at levels as low as 1 lb./acre. Herbicidal activity is obtained when the 3-nitropyrazole herbicide is applied to the plants to be controlled in the conventional manner, by direct application as a spray or dry formulation to the plant or its supporting soil.

Streptococcus sp. 80 = experiment: in vitro tube dilution test (MIC); assay type: cell-based; details: Streptococcus sp. 80, tube dilution; read-out: MIC
Source text: Other compounds of our invention have also been tested in the tube dilution test and shown to have in vitro activity against a number of microorganisms. The table below reports tests of a number of exemplary compounds against exemplary microorganisms. The compounds are identified by their numbers in the listing above. The data are reported as the MIC in micrograms per milliliter against the named exemplary microorganisms.

Salmonella dublin = experiment: in vitro tube dilution test (MIC); assay type: cell-based; details: Salmonella enterica; Salmonella dublin, tube dilution; read-out: MIC
Vibrio coli 3811 = experiment: in vitro tube dilution test (MIC); assay type: cell-based; details: Campylobacter coli; Vibrio coli 3811, tube dilution; read-out: MIC
[1] = test system: Staphylococcus aureus sp. 1130; experiment: in vitro tube dilution test (MIC); assay type: cell-based; details: read-out: MIC
Escherichia coli = experiment: in vitro tube dilution test (MIC); assay type: cell-based; details: tube dilution, read-out: MIC
Outline: (§1)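 Standard tube dilution test; MIC reported as micrograms of compound per milliliter.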

Mycoplasma gallisepticum = experiment: in vitro tube dilution test (MIC); assay type: cell-based; details: Mycoplasmoides gallisepticum; Mycoplasma gallisepticum, tube dilution; read-out: MIC
Outline: as §1

[2] = test system: Mycoplasma gallisepticum 38502; experiment: in vitro tube dilution test (MIC); assay type: cell-based; details: Mycoplasmoides gallisepticum; Mycoplasma gallisepticum 38502, tube dilution
Source text: (§2) The other preferred compounds of our invention have also been thoroughly tested in the in vitro tube dilution test.

[3] = test system: Staphylococcus aureus 3055; experiment: in vitro tube dilution test (MIC); assay type: cell-based; details: Staphylococcus aureus 3055, tube dilution
Source text: as §2

Escherichia coli 0127 = experiment: in vitro tube dilution test (MIC); assay type: cell-based; details: Escherichia coli 0127, tube dilution
Source text: as §2

Mycoplasma hyorhinis = experiment: in vitro tube dilution test (MIC); assay type: cell-based
Source text: (§3) Our compound, 1-(2-hydroxyethyl)-3-nitro-4-pyrazolecarboxamide, has been extensively tested in vitro to determine the range of microorganisms against which it is active. The table of data below reports the minimum inhibitory concentration (MIC) at which the compound is effective in controlling a variety of microorganisms in a standard tube dilution test system. The MIC is reported as micrograms of compound per milliliter.
as §2

Salmonella pullorum Ill. = experiment: in vitro tube dilution test (MIC); assay type: cell-based; details: Salmonella enterica
Source text: as §3, §2

Pseudomonas sp. = experiment: in vitro tube dilution test (MIC); assay type: cell-based
Source text: as §3, §2

[4] = test system: Salmonella heidelburg 1593; experiment: in vitro tube dilution test (MIC); assay type: cell-based; details: Salmonella heidelburg 1593, tube dilution
Source text: as §3, §2

[5] = test system: Salmonella typhimurium 1335; experiment: in vitro tube dilution test (MIC); assay type: cell-based; details: Salmonella enterica; Salmonella typhimurium 1335, tube dilution
Source text: as §3, §2

Salmonella typhimurium = experiment: Salmonellosis in chickens, single injection to day-old chicks; assay type: in vivo; details: Salmonella enterica, TYPHIMURIUM, 168 h; single injection of 60 mg./kg.; seven days; read-out: Survival (converted)
Outline: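 Five day-old chicks per group received one injection of compound at 60 mg./kg., then were challenged next day by subcutaneous S. typhimurium at a dose lethal to most or all untreated controls. Read-out is survivor count, pooled over repeat groups, with untreated challenged controls run in each batch.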

avian E. coli = experiment: Colibacillosis in chickens, medicated feed; assay type: in vivo
Erwinia amylovora = experiment: Fire blight of pear, in vivo greenhouse test
Protocol: An in vivo test was conducted against the fire blight organism, Erwinia amylovora. Plants infected with E. amylovora were sprayed with aqueous dispersions containing 100 ppm. and 500 ppm. of the test compounds. […] The compounds are identified below by their compound numbers in the above listing.

H. meleagridis = experiment: Blackhead in poultry, turkeys; assay type: in vivo
Protocol: One- to three-week-old chicks and turkey poults were obtained from homogeneous source flocks and allocated into treatment groups. Some groups were held as infected, untreated controls, and other groups were treated with 3-nitropyrazoles by administering the compounds in the birds' feed. Various concentrations of the pyrazoles were administered to determine the least concentration which protected the birds. A few days after the administration of medicated feed began, all of the birds were challenged by rectally administering a suspension of at least 5,000 H. meleagridis protozoa per chick. The challenge organisms had been originally obtained from infected chickens, and were grown in vitro to provide a supply of organisms for testing.
The birds were held for about seven days after the challenge was administered, during which time the administration of pyrazole-medicated feed was continued. Then all of the chicks, including the untreated, infected controls, were sacrificed and necropsied. The cecum and the liver of each bird were examined for characteristic H. meleagridis lesions.
For each compound, the lowest feed concentration which gave an active response is indicated. While feed consumption data were not taken during the tests, the birds ate at such a rate that a feed concentration of 0.02 percent is equivalent to a treatment rate of about 10 mg./kg./day.

S. typhimurium = experiment: Salmonella typhimurium in chickens, medicated feed; assay type: in vivo, chicks; details: 200 gm./ton feed; for Avg. Wt.: surviving chicks
P. multocida [6] = experiment: Mice infected with P. multocida, compound injected subcutaneously; assay type: in vivo
Protocol: A second test was conducted in much the same way, except that the 3-nitropyrazole was injected to the treated mice subcutaneously at the same time they were infected with the P. multocida culture.

P. multocida [7] = experiment: Mice infected with P. multocida, compound in drinking water; assay type: in vivo; details: 7 days
Protocol: Some of the 3-nitropyrazoles were also administered to mice infected with P. multocida. Tests were conducted in which the pyrazoles were administered both by injection and in the drinking water.
The table below reports results of tests in which the compound was administered in the water. Groups of 10 standardized white mice were segregated, and each mouse was infected by injecting a broth culture of P. multocida subcutaneously. The administration of the test compounds was begun at the same time the mice were infected by adding a known amount of the test compound to the drinking water of the mice. One group of infected control mice received no treatment. The mice were observed, and the test was concluded at the end of 7 days. The number of mice in each group which survived the P. multocida infection was recorded.

Pasteurella multocida = experiment: in vitro tube dilution test (MIC); assay type: cell-based; details: tube dilution, read-out: MIC
Outline: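 Standard tube dilution test; MIC is the lowest compound concentration controlling growth, given in μg/mL.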

[8] = test system: Trypanosoma cruzi (BHC/10 strain); experiment: use against Trypanosoma cruzi in rodents; assay type: in vivo; details: 12.5 mg./kg. for 10 days
Protocol: Some 3-nitropyrazoles have been used against Trypanosoma cruzi in rodents. The 3-nitro-1-vinyl-4-pyrazolecarboxamide killed 91 percent of T. cruzi of the BHC/10 strain when administered at 12.5 mg./kg. for 10 days.

[9] = Staphylococcus aureus sp. 1130, tube dilution
[10] = 100 gm./ton, further test, about 5 weeks of age
[11] = 200 gm./ton, further test, about 5 weeks of age
[12] = 300 gm./ton feed, about 5 weeks old, 10^-2 dilution challenge, first test
[13] = Staphylococcus aureus, SP.1130, Staphyloccocus 1130, tube dilution

Structure (SMILES) | MIC (Streptococcus sp. 80) | MIC (Salmonella dublin) | MIC (Vibrio coli 3811) | MIC [1, 9] | MIC (Escherichia coli) | MIC (Mycoplasma gallisepticum) | MIC [2] | MIC [3] | MIC (Escherichia coli 0127) | MIC (Mycoplasma hyorhinis) | MIC (Salmonella pullorum Ill.) | MIC (Pseudomonas sp.) | Avg. Wt. (avian E. coli; [10]) | E. coli Lesions (avian E. coli; [10]) | Mortality (avian E. coli; [10]) | Avg. Wt. (avian E. coli; [11]) | E. coli Lesions (avian E. coli; [11]) | Mortality (avian E. coli; [11]) | Percent Control of fire blight (Erwinia amylovora; 100 ppm.) | Percent Control of fire blight (Erwinia amylovora; 500 ppm.) | also measured
CCn1cc(C#N)c([N+](=O)[O-])n1 [Compound 1, 1-ethyl-3-nitro-4-pyrazolecarbonitrile] | 100 µg/mL (≈ 602 µM) | 100 µg/mL (≈ 602 µM) | 12.5 µg/mL (≈ 75.2 µM) | 100 µg/mL (≈ 602 µM) | 100 µg/mL (≈ 602 µM) | > 50 µg/mL | – | – | – | – | – | – | – | – | – | – | – | – | – | – | control of large crabgrass (large crabgrass): kills large crabgrass
C=CCn1cc(C(N)=O)c([N+](=O)[O-])n1 [Compound 16, 1-allyl-3-nitro-4-pyrazolecarboxamide] | – | 6.25 µg/mL (≈ 31.9 µM) | 3.12 µg/mL (≈ 15.9 µM) | – | – | – | 50 µg/mL (≈ 255 µM) | 10 µg/mL (≈ 51 µM) | 100 µg/mL (≈ 510 µM) | 50 µg/mL (≈ 255 µM) | < 1.56 µg/mL | 12.5 µg/mL (≈ 63.7 µM) | 1112 gm. | 40/40 | 16/40 | 1266 gm. | 31/40 | 11/40 | 100% | 60% | MIC [4]: 25 µg/mL (≈ 127 µM); MIC [5]: 6.25 µg/mL (≈ 31.9 µM); responders at 60 mg/kg (Salmonella typhimurium): 100%; E. coli Lesions (avian E. coli; [12]): 16/30; Mortality (avian E. coli; [12]): 0/30; Wt. (avian E. coli; [12]): 1090 gm.; MIC [1, 13]: 6.25 µg/mL (≈ 31.9 µM); Active Level (lowest feed concentration which gave an active response) (H. meleagridis): .02%; Survival (S. typhimurium; Test B): 26/36; Avg. Wt. (S. typhimurium; Test B): 88 gm.; Survival (S. typhimurium; Test C): 25/48; Avg. Wt. (S. typhimurium; Test C): 64 gm.
CC(=O)OCCn1cc(C(N)=O)c([N+](=O)[O-])n1 [Compound 80, 2-(4-carbamoyl-3-nitropyrazol-1-yl)ethyl acetate] | – | 12.5 µg/mL | 12.5 µg/mL | – | – | – | 25 µg/mL | 10 µg/mL | 100 µg/mL | 50 µg/mL | < 1.56 µg/mL | 25 µg/mL | 1219 gm. | 38/40 | 10/40 | 1308 gm. | 31/40 | 6/40 | 33% | 50% | MIC [4]: 12.5 µg/mL; MIC [5]: 12.5 µg/mL; responders at 60 mg/kg (Salmonella typhimurium): 70%; E. coli Lesions (avian E. coli; [12]): 9/30; Mortality (avian E. coli; [12]): 1/30; Wt. (avian E. coli; [12]): 1139 gm.; MIC [1, 13]: 3.12 µg/mL; Survival (P. multocida [6]; 2.5 mg./kg. subcutaneous): 4/10; Survival (P. multocida [6]; 5.0 mg./kg. subcutaneous): 3/10; Survival (P. multocida [6]; 10.0 mg./kg. subcutaneous): 8/10; Survival (P. multocida [6]; 25.0 mg./kg. subcutaneous): 9/10; Survival (S. typhimurium; Test C): 29/48; Avg. Wt. (S. typhimurium; Test C): 67 gm.; Survival (P. multocida [7]; 0.1 gm./gal. in drinking water): 9/10; Survival (P. multocida [7]; 0.2 gm./gal. in drinking water): 6/10; MIC (Pasteurella multocida): 25 µg/mL
C=Cn1cc(C(N)=O)c([N+](=O)[O-])n1 [Compound 81, 3-nitro-1-vinyl-4-pyrazolecarboxamide] | 25 µg/mL (≈ 137 µM) | 1.56 µg/mL (≈ 8.56 µM) | 25 µg/mL (≈ 137 µM) | 1.56 µg/mL (≈ 8.56 µM) | 1.56 µg/mL (≈ 8.56 µM) | 1.56 µg/mL (≈ 8.56 µM) | – | – | – | – | – | – | 1109 gm. | 23/40 | 5/40 | 918 gm. | 20/40 | 6/40 | 100% | 60% | percent of T. cruzi killed [8]: 91%; MIC (Pasteurella multocida): 1.56 µg/mL (≈ 8.56 µM)
